Data on one molecule can be found in patent US20130023555A1, “KINASE INHIBITOR WITH IMPROVED SOLUBILITY PROFILE” (Abbott Laboratories, priority 2011, published 2013).

Usually IC50 stands for the concentration that inhibits the measured activity by half. As usually defined, the solubility is how much of the substance goes into solution per volume.

In brackets after ≈: the same amount, converted by molar mass. Some results are limits rather than exact numbers.

The target of one data set is T1, cKIT (Homo sapiens, UniProt P10721).
T1 construct: GST
Kind of data set: HTRF in vitro kinase assay, cKIT. The data set is classed as biochemical. The conditions noted are these: 1 mM ATP. The method, then:
To determine the activity of the various kinases, a homogenous time-resolved fluorescence (HTRF) in vitro kinase assay was used. (Mathis, G., HTRF(R) Technology. J Biomol Screen, 1999. 4(6): p. 309-314; Alfred J. Kolb, Paul V. Kaplita, David J. Hayes, Young-Whan Park, Christine Pernell, John S. Major and Gerard Mathis, Drug Discovery Today, 1998, 3, 333-342.)
For example for KDR, cKIT, FLT1, CSF1R and FTL3, purified enzyme was mixed with 0.5 μM N-biotinylated substrate (Biotin-Ahx-[…]-amide (SEQ. ID. 1)), various concentrations of inhibitor in reaction buffer (50 mM HEPES, pH 7.1, 10 mM MgCl2, 2 mM MnCl2, 0.1% BSA and 1 mM DTT, 40 μL final volume), ATP (1 mM final conc.) in a black 384-well plate. After 60 minutes incubation at room temperature, the reaction was quenched by addition of a buffered EDTA solution (final approximate concentrations: 30 mM EDTA, 0.1% BSA, 0.1% Triton X-100 and 0.24M KF) and a solution of revelation agents (to give 0.084 ng/well streptavidin-XL-665 (Cis-Bio) and 6.5 ng/well antiphsophotyrosine mAb PT66-K Europium kryptate) was added to the reaction mixture. The quenched reaction was allowed to stand at room temperature for 3 hours and was then read in a time-resolved fluorescence detector (InVision, Perkin-Elmer) at 620 nm and 665 nm sequentially with excitation. The ratio between the signal of 620 nm and 665 nm was used in the calculation of the IC50.
(In TR-FRET formats the signal depends on donor and acceptor labels being close together.)

The nature of another data set: CLND Solubility Assay. The conditions noted are these: aqueous buffer, kinetic from dmso stock; 35 μM compound in 10 mM phosphate buffer, pH 7.2. The data set is classed as physicochemical. As for the experimental part:
Chemiluminescent nitrogen detection (CLND) method oxidized the analyte to nitrogen oxide that reacted with ozone to provide a photon of light and was a measure of how much compound was in solution. Compounds must contain nitrogens for this experiment. Nitrogen impurities present in the compound will cause falsely high results. • 1. Compound concentration tested was 35 μM in 10 mM phosphate buffer, 7.2. • 2. Compounds were tested in triplicate. • 3. Compound concentration was determined by comparing readings to a caffeine standard curve. One standard curve was run before and after every test plate. For 3 test plates, four standard curves were generated.
Experimental Procedure: • 1. 5 μl of 5 mM test compound in DMSO was added to three adjacent wells in a plate. • 2. 695 μl of 10 mM phosphate buffer, pH 7.2, was added to each well. • 3. The plates were sealed. • 4. The plates were allowed to sonicate for 1 hour. • 5. The plates were shook on a plate orbital shaker for up to 6 hours. • 6. The plates were spinned at 5000 rpm (6000×G) overnight. • 7. Standard curves were prepared by adding 5 μl of stock solutions to wells according to Caffeine Concentrations for Standard Curve table below. • 8. Buffer (10 mM phosphate buffer, pH 7.2, 695 μl) was added. • 9. The plates were sealed. • 10. The plates were loaded onto a TOC/CLND. • 11. The results were analyzed after the run was completed.
The solubility was determined by comparing the reading generated by analysis of the sample to the standard curve. The value was then divided by the number of nitrogens contained in the compound. Corrections for impurities during the synthesis were included in the number of nitrogens. The resulting value was the reported solubility.

A short description of data set [1]: Determination of Thermodynamic Solubility. The data set is classed as physicochemical. Particulars: for solubility: thermodynamic from solid. As for the experimental part: Aqueous pH 7.4 and PEG 300 samples were tested at 25° C. Excess amount of the bulk drug was weighed out and mixed with an aliquot of target media in a clear glass vial (n=3/solvent). The vial was capped, wrapped with aluminum foil, and tumbled in a 25° C. water bath. When equilibration was completed, the samples were removed from the water bath and the final pH was measured, if applicable. The samples were centrifuged at 25° C. at 3000 rpm for 20 minutes. The supernatant was filtered through 4 mm 0.45 μm PTFE syringe filters. The filtrate was assayed after appropriate dilution (no dilution required for aqueous samples). The concentration of the sample was calculated against a calibration curve for the compound.
Solubility in pH 7.4 buffer was carried out as described above, except samples were not centrifuged before filtration. All other experimental steps were the same. PEG 300 and PEG 400 solubility were done at ambient temperature. Excess amount of the bulk drug was weighed out and mixed with an aliquot of target media in a clear glass vial with a small stir bar (n=3). The vials were placed on the stirrer at ˜500 rpm and allowed to equilibrate over the weekend. Samples were filtered through 13 mm 0.45 μm GHP syringe filters. The filtrate was assayed after appropriate dilutions, and concentrations determined against a calibration curve for the compound.

In a further data set the target is T2, CYP3A4 (Homo sapiens, UniProt P08684).
T2 construct: The incubations consisted of human liver microsomal protein at 0.4 mg/ml; from tissue; host or cells: human liver microsomes
Kind of data set: CYP 3A4 Assay (Luc, luminescence, human liver microsomes). The conditions noted are these: human liver microsomes 0.4 mg/mL, substrate LUC-LIPA. Format: in vitro ADME. As for the experimental part: Each assay was preformed in ½ well plates. Test compounds were examined at six concentrations in DMSO that were serial diluted to: 2, 0.6, 0.2, 0.07, 0.02, and 0.007 mM (from left to right) and at 100×; 0.5 ul of these dilutions were added to two empty assay plates (resulting in final assay concentrations of 20, 6, 2, 0.7, 0.2, and 0.07 uM. The control and vehicle were added to the plate at 100× with the same dilution scheme.
The incubations consisted of human liver microsomal protein at 0.4 mg/ml in 100 mM KPO4 buffer, 125 uM NADPH and Regeneration mix in phosphate buffer at pH 7.4.
CYP3A4 requires a pre-incubation using the following recipe:
• CYP3A4—5 μM LUC-LIPA in 100 mM phosphate buffer pH 7.4 • Assay Procedure for CYP3A4: • 1. 40 uL of the Pre-incubation Mixture was added to all wells of the assay plates. • 2. Plates were pre-incubated for 10 minutes at 37° C., with shaking or rocking. (No pre-read is necessary for the luminescence assays CYP2C9 and CYP3A4). • 3. 10 μL of Substrate Solution was added to all wells of the assay plates. • 4. Plates were incubated for an additional 25 minutes at 37° C., with shaking or rocking. • 5. added 50 μl of stop/developer from respective kits, and incubated for 20 minutes to 2 hours with shaking at room temperature prior to reading. […]
(In general: Liver microsomes are vesicles of endoplasmic reticulum, rich in cytochrome P450 enzymes.)

T2 sequence (P08684 whole entry): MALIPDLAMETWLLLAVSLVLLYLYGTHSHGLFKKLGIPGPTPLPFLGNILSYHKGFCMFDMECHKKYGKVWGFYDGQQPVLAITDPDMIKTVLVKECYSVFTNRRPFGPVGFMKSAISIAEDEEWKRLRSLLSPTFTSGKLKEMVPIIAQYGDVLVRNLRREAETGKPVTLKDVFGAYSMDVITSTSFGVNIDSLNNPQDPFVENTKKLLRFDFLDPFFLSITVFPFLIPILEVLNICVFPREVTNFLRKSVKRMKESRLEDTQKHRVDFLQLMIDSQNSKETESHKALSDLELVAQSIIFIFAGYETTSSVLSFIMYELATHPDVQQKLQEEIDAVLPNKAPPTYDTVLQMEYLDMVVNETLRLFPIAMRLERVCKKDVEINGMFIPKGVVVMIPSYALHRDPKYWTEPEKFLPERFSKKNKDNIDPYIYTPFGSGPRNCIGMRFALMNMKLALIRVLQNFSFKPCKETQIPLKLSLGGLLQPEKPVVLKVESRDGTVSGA
T1 sequence (P10721 544-976 limits assumed): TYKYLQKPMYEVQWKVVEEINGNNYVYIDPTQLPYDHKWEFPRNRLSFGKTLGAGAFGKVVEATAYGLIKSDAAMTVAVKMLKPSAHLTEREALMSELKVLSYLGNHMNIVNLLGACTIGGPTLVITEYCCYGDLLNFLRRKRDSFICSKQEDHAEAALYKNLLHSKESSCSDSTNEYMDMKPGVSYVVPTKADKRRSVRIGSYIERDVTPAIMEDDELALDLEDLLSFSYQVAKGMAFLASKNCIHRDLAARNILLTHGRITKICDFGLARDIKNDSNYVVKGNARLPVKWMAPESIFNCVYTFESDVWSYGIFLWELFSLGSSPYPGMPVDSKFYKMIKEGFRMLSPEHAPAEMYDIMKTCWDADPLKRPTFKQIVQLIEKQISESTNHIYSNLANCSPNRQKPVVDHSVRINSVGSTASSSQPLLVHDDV

As to `CCN(CC)CCCNC(=O)c1cnc(N)c2c(-c3ccc(NC(=O)Nc4cccc(F)c4)cc3)csc12` [Example 1, 4-amino-N-[3-(diethylamino)propyl]-3-(4-{[(3-fluorophenyl)carbamoyl]amino}phenyl)thieno[3,2-c]pyridine-7-carboxamide], the IC50 against cKIT is 35 nM; on CYP3A4, greater than 20000 nM. Besides, the solubility was found to be 70.8 µM (≈ 37.8 µg/mL) in the data set “CLND Solubility Assay”; 132 mg/mL (≈ 247 mM) in data set [1] (PEG 300, 25 °C, organic solvent or mixture, PEG 300, Example 2 at 25° C., Example 1 at ambient temperature, read-out: Solubility (PEG300)); 124 mg/mL (≈ 232 mM) in data set [1] (PEG 400, organic solvent or mixture, PEG 400, ambient temperature, read-out: Solubility PEG 400); 0.0171 mg/mL (≈ 0.032 mM) in data set [1] (phosphate buffer, 25 °C, pH 7.4, aqueous buffer, 50 mM phosphate pH 7.4 buffer, 25° C., read-out: Solubility pH 7.4). Besides, in data set [1] (PEG 300, Example 2 at 25° C., Example 1 at ambient temperature), the “Solubility (PEG300)” value is recorded as greater than 125 mg/mL.
